Patent US11352350B2, “IRAK degraders and uses thereof” (Kymera Therapeutics, Inc., priority 2018, dated 2022)

Experiments:
IRAK4 [1] = biological target: T1, IRAK4 (Homo sapiens (Human), UniProt Q9NWZ3); experiment: IRAK4 degradation in human whole blood monocyte - flow cytometry; format: cell-based; conditions: read-out: IRAK4 degradation in whole blood monocyte-Flow cytometry: Average external Abs IC50
Protocol: (§1) Human whole blood IRAK4 degradation flow assay. Whole blood was collected in heparinized tubes and plated on the same day as draw (day 0). Whole blood was aliquoted into deep well plates. Compound plates were prepared and a 10 point, 5-fold dilution was performed with a final DMSO concentration of 0.1%. Compound was added to whole blood deep well plate, sealed and incubated at 37° C., 5% CO2 for 20 hours (for 4 hour treatment, compounds were prepared and added the following day). Following the treatment incubation period (day 1), BD lyse fix (BD #558049) was added to the whole blood plate, placed on plate shaker for 30 seconds and incubated for 10 mins at room temperature. Whole blood was then spun down and washed two times with PBS/0.5% BSA, aspirated to pellet and placed into −80° C. freezer until further processing for flow. On the flow run day, whole blood plates were thawed and samples were transferred to PCR plates. The pre-perm staining cocktail (CD3 Ax488/CD8 BUV805/CD14 BUV395/CD16/56 BV711/CD19 BV785) was added to samples and incubated for 30 minutes at room temperature. Samples were washed two times and permeabilized with Methanol for 10 minutes at 4° C. Samples were washed two times and the post-perm staining cocktail (CD4 PE/IRAK4 Ax647 BD #560315) was added and incubated for 30 minutes at room temperature. Samples were washed two times with PBS/BSA and run on a BD LSRFortessa. Mononuclear cells are gated by SSCH/FSCH and single cells. Monocytes are then gated through CD14 positive gate and lymphocytes are gated through CD14 negative gate. To determine absolute DC50 and max degradation values, MFI values were normalized to DMSO max and 20 hour 10 μM min control. Twenty hour dose curves were calculated using a 4 parameter logistic regression curve fit, no constraints (Top doses were removed if hook effects were observed and the bottom was constrained to 0).

TNFα [2] = experiment: Human PBMC LPS TNFα assay; format: cell-based; conditions: hPBMC, LPS stimulation, read-out: IRAK4 hPBMC LPS TNF-α inhibition: Average external-IC50
Protocol: Human PBMC LPS TNFα assay. Frozen PBMCs were thawed into RPMI with 10% FBS/1% penicillin/streptomycin and same day plated into 96 well plates at 200,000 PBMC/[…] media per well. Compound plates were prepared in DMSO with D300 cassette as 8-point dose curves in duplicate, starting dose 2 μM, 5-fold. Compounds are added 200 nL into cells for final 200 μL per well. Compound and cells were incubated at 37° C., 5% CO2 for 20 hours. After twenty hours of pretreatment with the compounds, LPS (01 1 1:B4) (Sigma #L2637) was added at 100 ng/ml final concentration and PBMCs incubated an additional five hours at 37° C., 5% CO2. Following assay completion, PBMC plates were spun down at 2000 rpm for 10 minutes. 100 uL of supernatant was carefully removed and placed into a new 96 well Costar (#3879) plate and stored at −80° C. until further analysis. Meso scale Discovery (MSD) human V-plex assays were used to measure cytokine levels. On day of cytokine analysis, supernatant samples were thawed, diluted with V-plex diluent #2, and directly to MSD plates. Assay was further completed per standard manufacturer's protocol. Cytokine data was normalized to LPS stimulated and unstimulated controls. Prism Graphpad was used to generate IC50 using 4 parameter logistic regression curve, free-fit.

IRAK4 [3] = biological target: T1, IRAK4; experiment: IRAK4 MSD degradation in OCI-LY10; format: cell-based; conditions: OCI-LY10, 4 hrs, MSD; read-out: IRAK4 MSD degradation in OCI-LY10 at 4 hrs: Average external-Abs DC50
Procedure, shortened: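 Remaining IRAK4 quantified by electrochemiluminescent MSD sandwich assay with two anti-IRAK4 antibodies. Compounds were dosed as 8 concentrations in 1:3 steps from a 1 to 10 μM final top on OCI-LY10 cells, incubated 4 to 24 h at 37° C. under 5% CO2. DC50 fitted with a three-parameter logistic curve.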

TNFα [4] = experiment: Human whole blood LPS TNFα assay; format: cell-based; conditions: 20 h pretreatment, LPS 5 h, read-out: IRAK4 human whole blood LPS TNFa inhibition: Average external-IC50
Protocol: Human Whole blood LPS TNFα assay. Whole blood was collected fresh and plated same day into 96 well plates at 180 μL per well. Compound plates were prepared in DMSO as 8-point dose curves in duplicate, starting dose 2 μM, 5-fold. Compounds are added 20 μL into blood for final 200 μL per well. Compound and cells were incubated at 37° C., 5% CO2 for 20 hours. After twenty hours of pretreatment with the compounds, LPS (01 1 1:B4) (Sigma #L2637) was added at 100 ng/ml final concentration and blood incubated an additional five hours at 37° C., 5% CO2. Following assay completion, whole blood plates were spun down at 2000 rpm for 15 minutes at 4° C. 50 μL of plasma was carefully removed and placed into a new 96 well Costar (#3879) plate and stored at −80° C. until further analysis. Meso scale Discovery (MSD) human V-plex assays were used to measure cytokine levels. On day of cytokine analysis, plasma samples were thawed, diluted with V-plex diluent #2, and directly to MSD plates. Assay was further completed per standard manufacturer's protocol. Cytokine data was normalized to LPS stimulated and unstimulated controls. Prism Graphpad was used to generate IC50 using 4 parameter logistic regression curve, free-fit.

OCI-LY10 = experiment: CTG Cell Viability Assay - OCI-LY10; format: cell-based, human; conditions: Homo sapiens, OCI-Ly10, 96 h, OCI-LY10, 4 days; read-out: CTG Cell Viability Assay - OCI-LY10: Average external-IC50
Procedure, shortened: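 Viability read by CellTiter-Glo luminescence after 4 days at 37° C under 5% CO2 with compound (top 10 μM final, 1:3 steps, 9 doses, DMSO 0.2%). Three-parameter logistic fit gave IC50.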

IRAK4 [5] = biological target: T1, IRAK4; experiment: IRAK4 degradation in human whole blood lymphocyte - flow cytometry; format: cell-based; conditions: read-out: IRAK4 degradation in whole blood lymphocyte-Flow cytometry: Average external Abs IC50
Protocol: as §1

T1 sequence (Q9NWZ3 whole entry): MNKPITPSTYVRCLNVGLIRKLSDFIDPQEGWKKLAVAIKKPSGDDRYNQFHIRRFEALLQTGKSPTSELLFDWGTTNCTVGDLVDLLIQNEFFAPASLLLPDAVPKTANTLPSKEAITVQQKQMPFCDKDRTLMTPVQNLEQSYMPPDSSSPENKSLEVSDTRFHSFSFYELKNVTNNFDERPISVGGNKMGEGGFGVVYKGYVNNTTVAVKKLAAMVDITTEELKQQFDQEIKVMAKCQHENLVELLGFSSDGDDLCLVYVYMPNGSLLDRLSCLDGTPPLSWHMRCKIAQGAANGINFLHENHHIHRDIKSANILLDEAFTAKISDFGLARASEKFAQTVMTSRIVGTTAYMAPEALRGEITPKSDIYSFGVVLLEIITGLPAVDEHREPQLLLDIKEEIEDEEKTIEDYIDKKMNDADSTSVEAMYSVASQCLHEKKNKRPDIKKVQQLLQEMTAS

Row | SMILES | IC50 (IRAK4 [1]) | IC50 (TNFα [2]) | DC50 (IRAK4 [3]) | IC50 (TNFα [4]) | IC50 (OCI-LY10) | DC50 (IRAK4 [5]) | DC50 (IRAK4 [1])
1 | Cn1c(=O)n(C2CCC(=O)NC2=O)c2cccc(CCCN3CCO[C@@H](CNC[C@H]4CC[C@H](n5cc(NC(=O)c6coc(-c7ccnc(NCC8CC8)c7)n6)c(C(F)F)n5)CC4)C3)c21 (stereo partly drawn) [I-38] | < 50 nM | < 50 nM | < 10 nM | 100 to 500 nM | < 50 nM | 50 to 100 nM | 
2 | O=C1CCC(N2C[C@H](c3cccc(C#CCN4CCO[C@@H](CNC[C@H]5CC[C@H](n6cc(NC(=O)c7coc(-c8ccnc(NCC9CC9)c8)n7)c(C(F)F)n6)CC5)C4)c3)OC2=O)C(=O)N1 (stereo partly drawn) [I-39] |  | 50 to 100 nM | 10 to 100 nM | 100 to 500 nM | 50 to 100 nM | 100 to 500 nM | 50 to 100 nM
3 | Cn1c(=O)n(C2CCC(=O)NC2=O)c2cccc(CCCOCCOCCNC[C@H]3CC[C@H](n4cc(NC(=O)c5coc(-c6ccnc(NCC7CC7)c6)n5)c(C(F)F)n4)CC3)c21 (stereo partly drawn) [I-2] | < 50 nM | 100 to 500 nM | 100 to 1000 nM | > 1000 nM | 100 to 500 nM | < 50 nM | 
4 | CN(C[C@@H]1CN(CCCc2ccc3c(c2)n(C)c(=O)n3C2CCC(=O)NC2=O)CCO1)C(=O)[C@H]1CC[C@H](n2cc(NC(=O)c3coc(-c4ccnc(NCC5CC5)c4)n3)c(C(F)F)n2)CC1 (stereo partly drawn) [I-17] | < 50 nM | < 50 nM | < 10 nM | 500 to 1000 nM | 100 to 500 nM | 50 to 100 nM | 
5 | CN(C[C@H]1CN(CC#Cc2ccc3c(c2)n(C)c(=O)n3C2CCC(=O)NC2=O)CCO1)C[C@H]1CC[C@H](n2cc(NC(=O)c3coc(-c4ccnc(NCC5CC5)c4)n3)c(C(F)F)n2)CC1 (stereo partly drawn) [I-61] |  | 100 to 500 nM | 10 to 100 nM | > 1000 nM | 100 to 500 nM | 100 to 500 nM | 50 to 100 nM
6 | CN(CCOCCOCCCc1cccc2c1n(C)c(=O)n2C1CCC(=O)NC1=O)C(=O)[C@H]1CC[C@H](n2cc(NC(=O)c3coc(-c4ccnc(NCC5CC5)c4)n3)c(C(F)F)n2)CC1 (stereo partly drawn) [I-32] | < 50 nM | 50 to 100 nM | < 10 nM | > 1000 nM | 100 to 500 nM | 50 to 100 nM | 
7 | Cn1c(=O)n(C2CCC(=O)NC2=O)c2cccc(CCCOCCNC[C@H]3CC[C@H](n4cc(NC(=O)c5coc(-c6ccnc(NCC(F)(F)F)c6)n5)c(C(N)=O)n4)CC3)c21 (stereo partly drawn) [I-11] | < 50 nM | < 50 nM | < 10 nM | > 1000 nM | > 1000 nM | < 50 nM | 
8 | Cn1c(=O)n(C2CCC(=O)NC2=O)c2ccc(CCCN3CCO[C@@H](CNC[C@H]4CC[C@H](n5cc(NC(=O)c6coc(-c7ccnc(NCC8CC8)c7)n6)c(C(F)F)n5)CC4)C3)cc21 (stereo partly drawn) [I-16] | < 50 nM | 100 to 500 nM | < 10 nM | > 1000 nM | 100 to 500 nM | 50 to 100 nM | 
9 | Cn1c(=O)n(C2CCC(=O)NC2=O)c2ccc(CN3CCN(CCO[C@H]4C[C@H](N(C)C(=O)[C@H]5CC[C@H](n6cc(NC(=O)c7coc(-c8ccnc(NCC9CC9)c8)n7)c(C(F)F)n6)CC5)C4)CC3)cc21 (stereo partly drawn) [I-45] | < 50 nM | < 50 nM | < 10 nM | 500 to 1000 nM | < 50 nM | 50 to 100 nM | 
10 | Cn1c(=O)n(C2CCC(=O)NC2=O)c2ccc(CCCCOCCCCNC[C@H]3CC[C@H](n4cc(NC(=O)c5cnn6ccc(N7CCNCC7)nc56)c(C(F)F)n4)CC3)cc21 (stereo partly drawn) [I-42] | < 50 nM | 100 to 500 nM | 10 to 100 nM | > 1000 nM | > 1000 nM | < 50 nM | 
11 | Cn1c(=O)n(C2CCC(=O)NC2=O)c2cccc(CCCOCC3CN(C[C@H]4CC[C@H](n5cc(NC(=O)c6coc(-c7ccnc(NCC8CC8)c7)n6)c(C(F)F)n5)CC4)C3)c21 (stereo partly drawn) [I-65] | < 50 nM | < 50 nM | < 10 nM | > 1000 nM | < 50 nM | 50 to 100 nM | 
12 | Cn1c(=O)n(C2CCC(=O)NC2=O)c2ccc(CCCN3CCO[C@H](CNC[C@H]4CC[C@H](n5cc(NC(=O)c6coc(-c7ccnc(NCC8CC8)c7)n6)c(C(F)F)n5)CC4)C3)cc21 (stereo partly drawn) [I-35] | < 50 nM | 100 to 500 nM | 10 to 100 nM | 500 to 1000 nM | < 50 nM | 50 to 100 nM | 
